Laboratory results taken from US20220305012A1, “L[…] TREATING SLEEP ISSUES” (EISAI R&D MANAGEMENT CO., LTD., priority 2019, published 2022).

How the values were obtained:
[1] = tested on: Subjects Having Insomnia Disorder; experiment: Example 1: subjective sleep onset latency (sSOL), Sleep Diary; assay type: in vivo, human
From the text: As used herein, the term “subjective sleep onset latency”, abbreviated as “sSOL”, means the estimated number of minutes from the time that the subject attempted to sleep until sleep onset. In some embodiments, sSOL is derived from data entered in a subject's Sleep Diary.
In some embodiments, sleep diaries were used to assess sleep parameters reported by subjects (i.e., subjective assessments) including subjective sleep onset latency (sSOL), subjective sleep efficiency (sSE), subjective WASO (sWASO), and subjective total sleep time (sTST). Subjects were instructed to complete the Sleep Diary developed based on the consensus Sleep Diary as described in Carney et al., “The consensus sleep diary: standardizing prospective sleep self-monitoring,” Sleep 2012; 35(2):287-302. In some embodiments, the Sleep Diary was used to assess the subject's global perception of quality of sleep on the previous night with the following question: “How would you rate the quality of your sleep last night?” Subjects rated the quality of their sleep on a scale from 1 to 9, with 1 being extremely poor and 9 being extremely good. In some embodiments, the Sleep Diary was used to assess subjective ratings of morning sleepiness with the following question: “How alert/sleepy do you feel this morning?” Subjects rated their sleepiness/alertness level on a Likert scale from 1 to 9, with 1 being extremely sleepy and 9 being extremely alert.
sSOL—subjective sleep onset latency: estimated minutes from the time that the subject attempted to sleep until sleep onset.
Subjects were randomized in a double-blind manner and received either placebo, 5 mg of lemborexant, or 10 mg of lemborexant (approximately 1:1:1 randomization). All subjects underwent routine safety monitoring through the study, including assessments of treatment-emergent adverse events, 12-lead electrocardiograms, vital signs, weight, and clinical hematology and blood chemistry labs. Suicidality was assessed using the eC-SSRS.
Treatment period 1 began with the first dose of randomized study medication (placebo, 5 mg of lemborexant, or 10 mg of lemborexant). Subjects completed sleep diaries daily in the morning, within one hour of waketime. The subjects were assessed by a clinician one month, two months, three months, and six months after initiation of Treatment period 1. The following assessments were conducted:
The primary endpoint was the mean change from study baseline in subjective sleep onset latency at month 6.

[2] = tested on: Subjects Having Insomnia Disorder; experiment: Example 1: Insomnia Severity Index Daytime Functioning (Items 4-7); assay type: in vivo, human
From the text: As used herein, the term “Insomnia Severity Index”, abbreviated as “ISI”, is an index calculated using a 7-item, self-report questionnaire assessing the nature, severity, and impact of insomnia (see Bastien, C. H., et al. “Validation of the Insomnia Severity Index as an outcome measure for insomnia research.” Sleep Med. 2001; 2(4): 297-307). The questionnaire evaluates: (1) severity of sleep onset; (2) sleep maintenance; (3) early morning awakening problems; (4) sleep dissatisfaction; (5) interference caused by sleep difficulties with daytime functioning; (6) noticeability of sleep problems by others; and (7) distress caused by the sleep difficulties. A 5-point scale is used to rate each item (0=no problem to 4=very severe problem) yielding a total score from 0 to 28. Total ISI score (items (1)-(7)) and daytime functioning (items (4)-(7)) are analyzed separately.
Month 1 Assessment: Standard safety assessments were performed on the subject. A blood sample was collected for determination of plasma concentration of lemborexant and its metabolites, and the ISI, FSS, PGI-Insomnia, EQ-5D-3L, and eC-SSR were completed.
Month 3 Assessment: All assessments conducted at the Month 1 Assessment were repeated.
Month 6 Assessment: All assessments conducted at the Month 1 Assessment were repeated, and subjects completed the WPAI-GH.
In addition to the aforementioned study endpoints, the study included several additional secondary endpoints: • Mean change from study baseline of subjective sleep onset latency, subjective sleep efficiency, subjective wake after sleep onset, and subjective total sleep time at the beginning of treatment (mean of the 7 nights after the first dose in Period 1), at Month 1 and at Month 3. • Mean change from study baseline of subjective total sleep time at Month 6. • Change from study baseline in daytime functioning, assessed as the total score from the 4 items on daytime functioning, on the Insomnia Severity Index, at Months 1, 3, and 6.

Structure (SMILES): Cc1ncc(OC[C@@]2(c3cccc(F)c3)C[C@H]2C(=O)Nc2ccc(F)cn2)c(C)n1 [Lemborexant, (1R,2S)-2-(((2,4-dimethylpyrimidin-5-yl)oxy)methyl)-2-(3-fluorophenyl)-N-(5-fluoropyridin-2-yl)cyclopropanecarboxamide]
- subjective sleep onset latency compared with placebo ([1]; 5 mg and 10 mg, at the equivalent timepoint (Table 2)): shorter subjective sleep onset latency than subjects treated with placebo
- sSOL, Geometric Mean ([1]; 5 mg, First 7 Nights): 30.99 min
- sSOL, Mean ([1]; 5 mg, First 7 Nights): 45.69 min
- sSOL, Median ([1]; 5 mg, First 7 Nights): 36.58 min
- sSOL, Geometric Mean ([1]; 5 mg, Month 1): 26.98 min
- sSOL, Mean ([1]; 5 mg, Month 1): 41.89 min
- sSOL, Median ([1]; 5 mg, Month 1): 32.50 min
- sSOL, Geometric Mean ([1]; 5 mg, Month 3): 21.72 min
- sSOL, Mean ([1]; 5 mg, Month 3): 34.31 min
- sSOL, Median ([1]; 5 mg, Month 3): 24.79 min
- sSOL, Geometric Mean ([1]; 5 mg, Month 6): 18.62 min
- sSOL, Mean ([1]; 5 mg, Month 6): 29.49 min
- sSOL, Median ([1]; 5 mg, Month 6): 22.29 min
- sSOL, Geometric Mean ([1]; 5 mg, Study Baseline): 42.97 min
- sSOL, Mean ([1]; 5 mg, Study Baseline): 62.19 min
- sSOL, Median ([1]; 5 mg, Study Baseline): 53.57 min
- sSOL Change from Study Baseline, Mean ([1]; 5 mg, after 1 Month): -19.41 min
- sSOL Change from Study Baseline, Median ([1]; 5 mg, after 1 Month): -13.71 min
- sSOL Change from Study Baseline, Mean ([1]; 5 mg, after 3 Months): -25.08 min
- sSOL Change from Study Baseline, Median ([1]; 5 mg, after 3 Months): -20.71 min
- sSOL Change from Study Baseline, Mean ([1]; 5 mg, after 6 Months): -29.39 min
- sSOL Change from Study Baseline, Median ([1]; 5 mg, after 6 Months): -21.81 min
- sSOL Change from Study Baseline, Mean ([1]; 5 mg, after 7 Nights): -16.86 min
- sSOL Change from Study Baseline, Median ([1]; 5 mg, after 7 Nights): -11.00 min
- sSOL, Geometric Mean ([1]; 10 mg, First 7 Nights): 30.77 min
- sSOL, Mean ([1]; 10 mg, First 7 Nights): 45.94 min
- sSOL, Median ([1]; 10 mg, First 7 Nights): 35.71 min
- sSOL, Geometric Mean ([1]; 10 mg, Month 1): 27.14 min
- sSOL, Mean ([1]; 10 mg, Month 1): 41.93 min
- sSOL, Median ([1]; 10 mg, Month 1): 31.79 min
- sSOL, Geometric Mean ([1]; 10 mg, Month 3): 22.71 min
- sSOL, Mean ([1]; 10 mg, Month 3): 36.13 min
- sSOL, Median ([1]; 10 mg, Month 3): 26.42 min
- sSOL, Geometric Mean ([1]; 10 mg, Month 6): 19.35 min
- sSOL, Mean ([1]; 10 mg, Month 6): 33.09 min
- sSOL, Median ([1]; 10 mg, Month 6): 23.57 min
- sSOL, Geometric Mean ([1]; 10 mg, Study Baseline): 45.05 min
- sSOL, Mean ([1]; 10 mg, Study Baseline): 64.97 min
- sSOL, Median ([1]; 10 mg, Study Baseline): 55.71 min
- sSOL Change from Study Baseline, Mean ([1]; 10 mg, after 1 Month): -24.06 min
- sSOL Change from Study Baseline, Median ([1]; 10 mg, after 1 Month): -19.86 min
- sSOL Change from Study Baseline, Mean ([1]; 10 mg, after 3 Months): -27.94 min
- sSOL Change from Study Baseline, Median ([1]; 10 mg, after 3 Months): -25.71 min
- sSOL Change from Study Baseline, Mean ([1]; 10 mg, after 6 Months): -32.49 min
- sSOL Change from Study Baseline, Median ([1]; 10 mg, after 6 Months): -28.21 min
- sSOL Change from Study Baseline, Mean ([1]; 10 mg, after 7 Nights): -18.89 min
- sSOL Change from Study Baseline, Median ([1]; 10 mg, after 7 Nights): -12.21 min
- ISI Daytime Functioning (Items 4-7), Mean ([2]; 5 mg, Month 1): 7.2
- ISI Daytime Functioning (Items 4-7), Median ([2]; 5 mg, Month 1): 7.0
- ISI Daytime Functioning (Items 4-7), Mean ([2]; 5 mg, Month 3): 6.2
- ISI Daytime Functioning (Items 4-7), Median ([2]; 5 mg, Month 3): 6.0
- ISI Daytime Functioning (Items 4-7), Mean ([2]; 5 mg, Month 6): 5.4
- ISI Daytime Functioning (Items 4-7), Median ([2]; 5 mg, Month 6): 5.0
- ISI Daytime Functioning Change from Study Baseline, Mean ([2]; 5 mg, Month 6): −6.0
- ISI Daytime Functioning Change from Study Baseline, Median ([2]; 5 mg, Month 6): −6.0
- ISI Daytime Functioning LSM treatment difference: Lemborexant/Placebo ([2]; 5 mg, Month 6): −1.30
- ISI Daytime Functioning (Items 4-7), Mean ([2]; 5 mg, Study Baseline): 11.4
- ISI Daytime Functioning (Items 4-7), Median ([2]; 5 mg, Study Baseline): 11.0
- ISI Daytime Functioning Change from Study Baseline, Mean ([2]; 5 mg, after 1 Month): −4.1
- ISI Daytime Functioning Change from Study Baseline, Median ([2]; 5 mg, after 1 Month): −3.0
- ISI Daytime Functioning Change from Study Baseline, Mean ([2]; 5 mg, after 3 Months): −5.2
- ISI Daytime Functioning Change from Study Baseline, Median ([2]; 5 mg, after 3 Months): −5.0
- ISI Daytime Functioning LSM treatment difference: Lemborexant/Placebo ([2]; 5 mg, change from Study Baseline after 1 Month): −0.71
- ISI Daytime Functioning LSM treatment difference: Lemborexant/Placebo ([2]; 5 mg, change from Study Baseline after 3 Months): −1.16
- ISI Daytime Functioning (Items 4-7), Mean ([2]; 10 mg, Month 1): 7.0
- ISI Daytime Functioning (Items 4-7), Median ([2]; 10 mg, Month 1): 7.0
- ISI Daytime Functioning (Items 4-7), Mean ([2]; 10 mg, Month 3): 6.0
- ISI Daytime Functioning (Items 4-7), Median ([2]; 10 mg, Month 3): 5.0
- ISI Daytime Functioning (Items 4-7), Mean ([2]; 10 mg, Month 6): 5.4
- ISI Daytime Functioning (Items 4-7), Median ([2]; 10 mg, Month 6): 5.0
- ISI Daytime Functioning Change from Study Baseline, Mean ([2]; 10 mg, Month 6): −5.7
- ISI Daytime Functioning Change from Study Baseline, Median ([2]; 10 mg, Month 6): −6.0
- ISI Daytime Functioning LSM treatment difference: Lemborexant/Placebo ([2]; 10 mg, Month 6): −1.32
- ISI Daytime Functioning (Items 4-7), Mean ([2]; 10 mg, Study Baseline): 11.0
- ISI Daytime Functioning (Items 4-7), Median ([2]; 10 mg, Study Baseline): 11.0
- ISI Daytime Functioning Change from Study Baseline, Mean ([2]; 10 mg, after 1 Month): −4.2
- ISI Daytime Functioning Change from Study Baseline, Median ([2]; 10 mg, after 1 Month): −4.0
- ISI Daytime Functioning Change from Study Baseline, Mean ([2]; 10 mg, after 3 Months): −5.2
- ISI Daytime Functioning Change from Study Baseline, Median ([2]; 10 mg, after 3 Months): −5.0
- ISI Daytime Functioning LSM treatment difference: Lemborexant/Placebo ([2]; 10 mg, change from Study Baseline after 1 Month): −0.94
- ISI Daytime Functioning LSM treatment difference: Lemborexant/Placebo ([2]; 10 mg, change from Study Baseline after 3 Months): −1.36
